Reference: US20140120232A1, “ACID TASTE/ACID SMELL-REDUCING AGENT” (T. HASEGAWA CO., LTD., priority 2011, published 2014)

Assay: Sensory evaluation of dressing containing the agent
Settings: ten panels
Experimental: Sensory evaluation of each drink was carried out by ten panels. […] The piercing aroma characteristic to aldehydes is a characteristic aroma common to every aldehyde and refers to an irritant off-smell giving an image of deteriorated oils and fats, soap, metals, Houttuynia cordata, etc. The judgment of smell was performed by comparing the effects at different concentrations of the acid taste and/or acid smell-reducing agent, and a concentration giving the highest acid taste/acid smell quality was selected.
A separation-type dressing base material (100 g) was prepared by mixing 20 g of edible vinegar, 35 g of vegetable oils and fats, and 45 g of an aqueous solution containing spices and extracts with stirring. To the resulting mixture was added (Z,Z)-4,7-tridecadienal as the acid taste and/or acid smell-reducing agent of the present invention in concentrations shown in the following Table 10 to give dressings containing the agent, followed by sensory evaluation as in Example 1.

CCCCC/C=C\C/C=C\CCC=O [(Z,Z)-4,7-tridecadienal]
A: number of panels, acid taste/acid smell extreme and cause irritation (0.005 ppt): 10 | B: number of panels, acid taste/acid smell slightly strong and slightly cause irritation (0.005 ppt): 0 | C: number of panels, acid taste/acid smell slightly unpleasant (0.005 ppt): 0 | Flavor judgment: number of panels who judged acid taste/acid smell quality the highest (0.005 ppt): 0 | N: number of panels, irritation of acid reduced to give a mild acid taste (0.005 ppt): 0 | X: number of panels, acid taste reduced but piercing odor characteristic to aldehydes unpleasant (0.005 ppt): 0 | A: number of panels, acid taste/acid smell extreme and cause irritation (0.02 ppt): 9 | B: number of panels, acid taste/acid smell slightly strong and slightly cause irritation (0.02 ppt): 1 | C: number of panels, acid taste/acid smell slightly unpleasant (0.02 ppt): 0 | Flavor judgment: number of panels who judged acid taste/acid smell quality the highest (0.02 ppt): 0 | N: number of panels, irritation of acid reduced to give a mild acid taste (0.02 ppt): 0 | X: number of panels, acid taste reduced but piercing odor characteristic to aldehydes unpleasant (0.02 ppt): 0 | A: number of panels, acid taste/acid smell extreme and cause irritation (0.1 ppt): 6 | B: number of panels, acid taste/acid smell slightly strong and slightly cause irritation (0.1 ppt): 4 | C: number of panels, acid taste/acid smell slightly unpleasant (0.1 ppt): 0 | Flavor judgment: number of panels who judged acid taste/acid smell quality the highest (0.1 ppt): 0 | N: number of panels, irritation of acid reduced to give a mild acid taste (0.1 ppt): 0 | X: number of panels, acid taste reduced but piercing odor characteristic to aldehydes unpleasant (0.1 ppt): 0 | A: number of panels, acid taste/acid smell extreme and cause irritation (0.2 ppt): 4 | B: number of panels, acid taste/acid smell slightly strong and slightly cause irritation (0.2 ppt): 4 | C: number of panels, acid taste/acid smell slightly unpleasant (0.2 ppt): 2 | Flavor judgment: number of panels who judged acid taste/acid smell quality the highest (0.2 ppt): 0 | N: number of panels, irritation of acid reduced to give a mild acid taste (0.2 ppt): 0 | X: number of panels, acid taste reduced but piercing odor characteristic to aldehydes unpleasant (0.2 ppt): 0 | A: number of panels, acid taste/acid smell extreme and cause irritation (0.5 ppt): 1 | B: number of panels, acid taste/acid smell slightly strong and slightly cause irritation (0.5 ppt): 2 | C: number of panels, acid taste/acid smell slightly unpleasant (0.5 ppt): 2 | Flavor judgment: number of panels who judged acid taste/acid smell quality the highest (0.5 ppt): 1 | N: number of panels, irritation of acid reduced to give a mild acid taste (0.5 ppt): 5 | X: number of panels, acid taste reduced but piercing odor characteristic to aldehydes unpleasant (0.5 ppt): 0 | A: number of panels, acid taste/acid smell extreme and cause irritation (1 ppb): 0 | B: number of panels, acid taste/acid smell slightly strong and slightly cause irritation (1 ppb): 0 | C: number of panels, acid taste/acid smell slightly unpleasant (1 ppb): 3 | Flavor judgment: number of panels who judged acid taste/acid smell quality the highest (1 ppb): 0 | N: number of panels, irritation of acid reduced to give a mild acid taste (1 ppb): 3 | X: number of panels, acid taste reduced but piercing odor characteristic to aldehydes unpleasant (1 ppb): 4 | A: number of panels, acid taste/acid smell extreme and cause irritation (1 ppt): 0 | B: number of panels, acid taste/acid smell slightly strong and slightly cause irritation (1 ppt): 1 | C: number of panels, acid taste/acid smell slightly unpleasant (1 ppt): 3 | Flavor judgment: number of panels who judged acid taste/acid smell quality the highest (1 ppt): 1 | N: number of panels, irritation of acid reduced to give a mild acid taste (1 ppt): 6 | X: number of panels, acid taste reduced but piercing odor characteristic to aldehydes unpleasant (1 ppt): 0 | A: number of panels, acid taste/acid smell extreme and cause irritation (5 ppt): 0 | B: number of panels, acid taste/acid smell slightly strong and slightly cause irritation (5 ppt): 0 | C: number of panels, acid taste/acid smell slightly unpleasant (5 ppt): 3 | Flavor judgment: number of panels who judged acid taste/acid smell quality the highest (5 ppt): 4 | N: number of panels, irritation of acid reduced to give a mild acid taste (5 ppt): 7 | X: number of panels, acid taste reduced but piercing odor characteristic to aldehydes unpleasant (5 ppt): 0 | A: number of panels, acid taste/acid smell extreme and cause irritation (10 ppb): 0 | B: number of panels, acid taste/acid smell slightly strong and slightly cause irritation (10 ppb): 0 | C: number of panels, acid taste/acid smell slightly unpleasant (10 ppb): 1 | Flavor judgment: number of panels who judged acid taste/acid smell quality the highest (10 ppb): 0 | N: number of panels, irritation of acid reduced to give a mild acid taste (10 ppb): 2 | X: number of panels, acid taste reduced but piercing odor characteristic to aldehydes unpleasant (10 ppb): 7 | A: number of panels, acid taste/acid smell extreme and cause irritation (20 ppt): 0 | B: number of panels, acid taste/acid smell slightly strong and slightly cause irritation (20 ppt): 0 | C: number of panels, acid taste/acid smell slightly unpleasant (20 ppt): 3 | Flavor judgment: number of panels who judged acid taste/acid smell quality the highest (20 ppt): 4 | N: number of panels, irritation of acid reduced to give a mild acid taste (20 ppt): 7 | X: number of panels, acid taste reduced but piercing odor characteristic to aldehydes unpleasant (20 ppt): 0 | A: number of panels, acid taste/acid smell extreme and cause irritation (50 ppb): 0 | B: number of panels, acid taste/acid smell slightly strong and slightly cause irritation (50 ppb): 0 | C: number of panels, acid taste/acid smell slightly unpleasant (50 ppb): 0 | Flavor judgment: number of panels who judged acid taste/acid smell quality the highest (50 ppb): 0 | N: number of panels, irritation of acid reduced to give a mild acid taste (50 ppb): 2 | X: number of panels, acid taste reduced but piercing odor characteristic to aldehydes unpleasant (50 ppb): 8 | A: number of panels, acid taste/acid smell extreme and cause irritation (100 ppt): 0 | B: number of panels, acid taste/acid smell slightly strong and slightly cause irritation (100 ppt): 1 | C: number of panels, acid taste/acid smell slightly unpleasant (100 ppt): 3 | Flavor judgment: number of panels who judged acid taste/acid smell quality the highest (100 ppt): 0 | N: number of panels, irritation of acid reduced to give a mild acid taste (100 ppt): 4 | X: number of panels, acid taste reduced but piercing odor characteristic to aldehydes unpleasant (100 ppt): 2 | A: number of panels, acid taste/acid smell extreme and cause irritation (500 ppt): 0 | B: number of panels, acid taste/acid smell slightly strong and slightly cause irritation (500 ppt): 0 | C: number of panels, acid taste/acid smell slightly unpleasant (500 ppt): 4 | Flavor judgment: number of panels who judged acid taste/acid smell quality the highest (500 ppt): 0 | N: number of panels, irritation of acid reduced to give a mild acid taste (500 ppt): 4 | X: number of panels, acid taste reduced but piercing odor characteristic to aldehydes unpleasant (500 ppt): 2
